Literature values, collected in patent US11504416B2, “Formulation with cannabinoids” (PAW POWER, INC., priority 2018, dated 2022).

How the values were obtained:
[1] = intra-articular injection, high molecular weight (>5×10^6 Da)

| Compound | gastrointestinal absorption (administered orally) | time to peak levels in the bloodstream (after oral ingestion) [h] | tissue distribution of ingested glucosamine (oral ingestion) | function in subjects with osteoarthritis or rheumatoid arthritis [1] |
| --- | --- | --- | --- | --- |
| N[C@H]1C(O)O[C@H](CO)[C@@H](O)[C@@H]1O (stereo partly shown) [Glucosamine] | readily absorbed | ≤ 8 | localizes to cartilage and joint tissues |  |
| hyaluronic acid |  |  |  | improves function |
